Laboratory results published in US10584134B2, “Use of physiological cooling active ingredients, and agents containing such active ingredients” (SYMRISE AG, priority 2009, dated 2020).
Where a name gives a salt, the structure may show the parent alone.

Target: human TRPM8 receptor (Homo sapiens (Human), UniProt Q7Z2W7)
Assay: Assay on TRPM8 modulators (Ca2+-sensitive dye, HEK293-TRPM8 test cells, EC50 determination)
Assay type: cell-based
Settings: Table A, structure type 1; assay according to reference example 3
Excerpt: As a test cell system the human TRPM8 DNA (see plasmid pInd-M8 above) was used to prepare a stable transfixed HEK293 cell line. Here preference is for HEK293 which via the plasmid introduced offers the possibility of induction of the TRPM8 expression by means of tetracycline.
The agonisation or antagonisation of the receptor can be quantified by means of a Ca^2+-sensitive dye (e.g. FURA, Fluo-4, etc.).
To begin with, in a manner known per se, in cell culture flasks a fresh culture of transformed HEK cells is prepared. The HEK293-TRPM8 test cells are removed using trypsin from the cell culture flasks and 40 000 cells/well are sown with 100 μl medium in 96-well plates (Greiner #655948 Poly-D-lysine coated). In order to induce the TRPM8 receptor the growth medium tetracycline is mixed in (DMEM/HG, 10% FCS tetracycline-free, 4 mM L-glutamine, 15 μg/ml blasticidin, 100 μg/ml hygromycin B, 1 μg/ml tetracycline). The next day the cells are charged with Fluo-4Am dye and the test is performed.
The test substances are used in triplicate in concentrations of between 0.1 and 200 μm in the assay. Normally the compounds are kept ready in DMSO solutions and diluted for the assay to a maximum DMSO concentration of 2%.

human TRPM8 receptor, sequence (Q7Z2W7 whole entry): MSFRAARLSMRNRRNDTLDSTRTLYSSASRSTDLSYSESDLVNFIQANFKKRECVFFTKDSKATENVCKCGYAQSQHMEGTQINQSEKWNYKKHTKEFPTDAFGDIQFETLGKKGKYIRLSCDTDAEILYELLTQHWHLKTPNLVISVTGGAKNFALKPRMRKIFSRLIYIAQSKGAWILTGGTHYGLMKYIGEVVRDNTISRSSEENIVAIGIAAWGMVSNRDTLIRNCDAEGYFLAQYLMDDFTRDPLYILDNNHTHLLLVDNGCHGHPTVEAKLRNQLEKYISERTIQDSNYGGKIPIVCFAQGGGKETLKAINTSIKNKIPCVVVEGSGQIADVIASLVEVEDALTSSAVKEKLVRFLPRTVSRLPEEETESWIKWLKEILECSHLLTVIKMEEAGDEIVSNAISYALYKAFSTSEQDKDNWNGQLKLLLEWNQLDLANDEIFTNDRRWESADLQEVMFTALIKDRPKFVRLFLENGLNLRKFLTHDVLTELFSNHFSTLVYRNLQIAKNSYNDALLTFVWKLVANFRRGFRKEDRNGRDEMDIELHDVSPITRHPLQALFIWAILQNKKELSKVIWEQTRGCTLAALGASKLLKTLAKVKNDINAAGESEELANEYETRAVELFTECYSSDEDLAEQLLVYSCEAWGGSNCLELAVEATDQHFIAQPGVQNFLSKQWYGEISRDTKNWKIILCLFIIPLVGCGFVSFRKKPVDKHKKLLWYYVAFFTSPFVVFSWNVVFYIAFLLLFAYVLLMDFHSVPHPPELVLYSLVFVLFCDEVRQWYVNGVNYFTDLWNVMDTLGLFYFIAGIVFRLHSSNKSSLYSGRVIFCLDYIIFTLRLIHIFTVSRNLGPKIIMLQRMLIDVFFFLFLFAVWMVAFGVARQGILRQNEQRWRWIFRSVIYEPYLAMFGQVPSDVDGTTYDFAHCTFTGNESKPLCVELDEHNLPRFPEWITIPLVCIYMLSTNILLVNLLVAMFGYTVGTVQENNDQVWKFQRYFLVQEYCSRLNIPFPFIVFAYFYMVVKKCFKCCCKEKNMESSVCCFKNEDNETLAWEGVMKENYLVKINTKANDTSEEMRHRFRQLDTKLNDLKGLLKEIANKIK

Row | SMILES | EC50
1 | O=C1CCCC2=C1C1(CC3c4ccccc4CCN23)SCCS1 (centres unmarked) [Compound 1-1, 2,3,4,5,6,10b,11,12-octahydro-spiro[4b-azachrysene-12,2′-[1,3]dithioland-]-1-one] | 100 nM
2 | CC1(C)CC(=O)C2=C(C1)N1CCc3ccccc3C1CC21SCCS1 (centres unmarked) [Compound 1-2, 2,3,4,5,6,10b,11,12-octahydro-3,3-dimethyl-spiro[4b-azachrysene-12,2′-[1,3]dithiolan]-1-one] | 600 nM
3 | CC1OC(=O)C2=C1N1CCc3ccccc3C1CC21SCCS1 (centres unmarked) [Compound 1-3, 5,6,10b,11-tetrahydro-3-methyl-spiro[12H-benzo[a]furo[3,4-f]quinolizin-12,2′-[1,3]dithiolan]-1(3H)one] | 700 nM
4 | O=C1CCCC2=C1C1(CC3c4ccccc4CCN23)SCCCS1 (centres unmarked) [Compound 1-4, 2,3,4,5,6,10b,11,12-octahydro-spiro[4b-azachrysene-12,2′-[1,3]dithian]-1-one] | 3100 nM
5 | CC1(C)CC(=O)C2=C(C1)N1CCc3ccccc3C1CC21SCCCS1 (centres unmarked) [Compound 1-5, 2,3,4,5,6,10b,11,12-octahydro-3,3-dimethyl-spiro[4b-azachrysene-12,2′-[1,3]dithian]-1-one] | 1400 nM
6 | C[C@H]1OC(=O)C2=C1N1CCc3ccccc3C1CC21SCCCS1 (some centres unmarked) [Compound 1-6] | 200 nM
7 | C[C@H]1OC(=O)C2=C1N1CCc3ccccc3C1CC21[S+]([O-])CCS1(=O)=O (some centres unmarked) [Compound 1-7] | 700 nM
8 | CC1(C)CC(=O)C2=C(C1)N1CCc3ccccc3C1CC21[S+]([O-])CCS1(=O)=O (centres unmarked) [Compound 1-8] | 9800 nM
9 | C[C@H]1OC(=O)C2=C1N1CCc3ccccc3C1CC2=O (some centres unmarked) [Compound 1-9] | 10000 nM

Same assay, conditions: Table B, structure type 2; assay according to reference example 3

Row | SMILES | EC50
10 | CC[C@@H](C)Nc1nc(-c2ccccn2)ncc1OC (stereo in doubt) [Compound 2-5, Sec-butyl-(5-methoxy-2-pyridin-2-yl-pyrimidin-4-yl)-amine] | 100 nM
11 | COc1cnc(-c2ccccn2)nc1NC(C)C [Compound 2-1, Isopropyl-(5-methoxy-2-pyridin-2-yl-pyrimidin-4-yl)-amine] | 100 nM
12 | COc1cnc(-c2ccccn2)nc1NC1CCC1 [Compound 2-3, Cyclobutyl-(5-methoxy-2-pyridin-2-yl-pyrimidin-4-yl)-amine] | 800 nM
13 | COc1cnc(-c2ccccn2)nc1N1CCOCC1 [Compound 2-4] | 1000 nM
14 | COc1cnc(-c2ccccn2)nc1NC(C)CCO (centres unmarked) [Compound 2-9] | 1000 nM
15 | COCC(C)Nc1nc(-c2ccccn2)ncc1OC (centres unmarked) [Compound 2-10] | 2200 nM
16 | COc1cnc(-c2ccccn2)nc1NCC1CC1 [Compound 2-11] | 1200 nM
17 | COc1cnc(-c2ccccc2)nc1N1CCOCC1 [Compound 2-13] | 11700 nM
18 | CCc1cnc(-c2ccccn2)nc1NC(C)C [Compound 2-14, (5-ethyl-2-pyridin-2-yl-pyrimidin-4-yl)-isopropyl-amine] | 400 nM
19 | COc1cnc(-c2ccccn2)nc1NC(C)C [Compound 2-15, Isopropyl-(5-methoxy-2-pyridin-2-yl-pyrimidin-4-yl)-ammonium citrate] | 800 nM
20 | COc1cnc(-c2ccccn2)nc1NC(C)C [Compound 2-16, Isopropyl-(5-methoxy-2-pyridin-2-yl-pyrimidin-4-yl)-ammonium fumarate] | 1600 nM
21 | COc1cnc(-c2ccccn2)nc1NC(C)C [Compound 2-17, Isopropyl-(5-methoxy-2-pyridin-2-yl-pyrimidin-4-yl)-ammonium malate] | 400 nM
22 | COc1cnc(-c2ccccn2)nc1NC(C)C [Compound 2-18, Isopropyl-(5-methoxy-2-pyridin-2-yl-pyrimidin-4-yl)-ammonium tartrate] | 500 nM
23 | COc1cnc(-c2ccccn2)nc1NC(C)C [Compound 2-19, Isopropyl-(5-methoxy-2-pyridin-2-yl-pyrimidin-4-yl)-ammonium succinate] | 300 nM
24 | COc1cnc(-c2ccccn2)nc1NC(C)C [Compound 2-20] | 900 nM
25 | COc1cnc(-c2ccccn2)nc1NC(C)C [Compound 2-22] | 700 nM

Same assay, conditions: Table C, structure type 3; assay according to reference example 3

Row | SMILES | EC50
26 | O=C(/C=C/c1ccc2c(c1)OCO2)N(c1ccccn1)C1CCCCC1 [Compound 3-1, (E)-3-benzo[1,3]dioxol-5-yl-N-cyclohexyl-N-pyridin-2-yl-acrylamide] | 100 nM
27 | O=C(/C=C/c1ccc2c(c1)OCO2)N(C1CCCCC1)C1CCCCC1 [Compound 3-2] | 11800 nM
28 | O=C(/C=C/c1ccc2c(c1)OCO2)N(c1ccccc1)C1CCCCC1 [Compound 3-3] | 900 nM
29 | CCN(C(=O)/C=C/c1ccc2c(c1)OCO2)C1CCCCC1 [Compound 3-4] | 800 nM
30 | CC(C)N(C(=O)/C=C/c1ccc2c(c1)OCO2)C1CCCCC1 [Compound 3-5, (E)-3-benzo[1,3]dioxol-5-yl-N-cyclohexyl-N-isopropyl-acrylamide] | 200 nM
31 | O=C(/C=C/c1ccc2c(c1)OCO2)N(c1ccccc1)c1ccccc1 [Compound 3-6, (E)-3-benzo[1,3]dioxol-5-yl-N,N-diphenyl-acrylamide] | 800 nM
32 | CCCN(C(=O)/C=C/c1ccc2c(c1)OCO2)c1ccccc1 [Compound 3-7] | 1100 nM
33 | CC(C)N(C(=O)/C=C/c1ccc2c(c1)OCO2)c1ccccc1 [Compound 3-8] | 600 nM
34 | CCCCN(C(=O)/C=C/c1ccc2c(c1)OCO2)c1ccccc1 [Compound 3-9] | 700 nM
35 | O=C(/C=C/c1ccc2c(c1)OCO2)N(Cc1ccccc1)c1ccccc1 [Compound 3-10] | 1200 nM
36 | CCN(C(=O)/C=C/c1ccc2c(c1)OCO2)c1ccccn1 [Compound 3-11] | 6200 nM
37 | O=C(/C=C/c1ccc2c(c1)OCO2)N(Cc1ccccc1)c1ccccn1 [Compound 3-12] | 700 nM
38 | CC(C)N(Cc1ccccc1)C(=O)/C=C/c1ccc2c(c1)OCO2 [Compound 3-13] | 3900 nM
39 | CCN(Cc1ccccc1)C(=O)/C=C/c1ccc2c(c1)OCO2 [Compound 3-14] | 1500 nM
40 | CCN(CC)C(=O)/C=C/c1ccc2c(c1)OCO2 [Compound 3-15] | 12300 nM
41 | CC(C)CN(C(=O)/C=C/c1ccc2c(c1)OCO2)c1ccc(Cl)cc1 [Compound 3-16] | 8200 nM
42 | COc1ccc(/C=C/C(=O)N(c2ccccn2)C2CCCCC2)cc1 [Compound 3-17, 4-methoxycinammic acid-N-cyclohexyl-N-2-pyridylamide] | 400 nM
43 | COc1ccc(/C=C/C(=O)N(C2CCCCC2)C2CCCCC2)cc1 [Compound 3-18, (E)-N,N-dicyclohexyl-3-(4-methoxy-phenyl)-acrylamide] | 100 nM
44 | COc1ccc(/C=C/C(=O)N(c2ccccc2)C2CCCCC2)cc1 [Compound 3-19] | 700 nM
45 | COc1ccc(/C=C/C(=O)N(c2ccccc2)c2ccccc2)cc1 [Compound 3-20, 4-methoxycinammic acid-N,N-diphenylamide] | 1100 nM

Row | SMILES | EC50
46 | CCCN(C(=O)/C=C/c1ccc(OC)cc1)c1ccccc1 [Compound 3-21] | 1700 nM
47 | COc1ccc(/C=C/C(=O)N(c2ccccc2)C(C)C)cc1 [Compound 3-22] | 1300 nM
48 | COc1ccc(/C=C/C(=O)N(Cc2ccccc2)c2ccccc2)cc1 [Compound 3-23] | 3200 nM
49 | COc1ccc(/C=C/C(=O)N(Cc2ccccc2)c2ccccn2)cc1 [Compound 3-24] | 2200 nM
50 | O=C(/C=C/c1ccccc1)N(c1ccccn1)C1CCCCC1 [Compound 3-25, Cinammic acid-N-cyclohexyl-N-2-pyridylamide] | 2300 nM
51 | O=C(/C=C/c1ccccc1)N(c1ccccc1)C1CCCCC1 [Compound 3-26, (E)-N-cyclohexyl-3,N-diphenyl-acrylamide] | 600 nM
52 | O=C(/C=C/c1ccccc1)N(c1ccccc1)c1ccccc1 [Compound 3-27, Cinammic acid-N,N-diphenylamide] | 2900 nM
53 | O=C(/C=C/c1ccccc1)N(Cc1ccccc1)c1ccccc1 [Compound 3-28] | 2400 nM
54 | CC(C1CC1)N(C(=O)/C=C/c1ccccc1)c1ccccc1 (centres unmarked) [Compound 3-29] | 800 nM
55 | Cc1ccccc1/C=C/C(=O)N(c1ccccn1)C1CCCCC1 [Compound 3-30] | 400 nM
56 | Cc1cccc(/C=C/C(=O)N(c2ccccn2)C2CCCCC2)c1 [Compound 3-31, (E)-N-cyclohexyl-N-pyridin-2-yl-3-m-tolyl-acrylamide] | 300 nM
57 | Cc1ccc(/C=C/C(=O)N(c2ccccn2)C2CCCCC2)cc1 [Compound 3-32, (E)-N-cyclohexyl-N-pyridin-2-yl-3-p-tolyl-acrylamide] | 300 nM
58 | Cc1ccc(/C=C/C(=O)N(C2CCCCC2)C2CCCCC2)cc1 [Compound 3-33] | 2100 nM
59 | Cc1ccc(/C=C/C(=O)N(c2ccccc2)c2ccccc2)cc1 [Compound 3-34, 4-methylcinammic acid-N,N-diphenylamide] | 4000 nM
60 | Cc1ccc(/C=C/C(=O)N(c2ccccc2)C(C)C)cc1 [Compound 3-36] | 1800 nM
61 | COc1cccc(/C=C/C(=O)N(c2ccccn2)C2CCCCC2)c1 [Compound 3-37] | 3000 nM
62 | COc1cccc(/C=C/C(=O)N(c2ccccn2)C2CCCCC2)c1OC [Compound 3-38] | 700 nM
63 | COc1cccc(/C=C/C(=O)N(c2ccccc2)C2CCCCC2)c1OC [Compound 3-39] | 2600 nM
64 | COc1cccc(/C=C/C(=O)N(c2ccccc2)c2ccccc2)c1OC [Compound 3-40] | 5900 nM
65 | O=C(/C=C/c1ccccc1Cl)N(c1ccccn1)C1CCCCC1 [Compound 3-41] | 700 nM
